Patent US20110212116A1, “IMMUNOGENIC PEPTIDES AND USES THEREOF” (Cancer Research Technology Limited, priority 2008, published 2011)

Test system: patient CD8+ T cells
Assay: pMHC tetramer array with unstimulated patient CD8+ T cells
Assay type: cell-based, human
Experimental: FIG. 11: pMHC arrays. pMHC molecules were folded into tetramers using either streptavidin alone or AlexaFluor 532 (Molecular Probes) conjugated to streptavidin. Tetramers were spotted onto hydrogel slides using a contact deposition-type printer (Genetix), at a concentration of 0.5 mg/ml in 2% glycerol. Printed arrays were immobilised for 48 hours and stored at 4° C. until use. (FIG. 11 i) CD8+ T cells were negatively isolated from normal donor buffy coats obtained from National Blood Service UK or patient samples from the Department of Haematology, Southampton General Hospital following informed consent using EasySep isolation kits. […] Excess culture medium was removed before slides were analysed on the ProScanArray (PerkinElmer). […] Negatively isolated CD8+ T cells were labelled with CD8-FITC (FL1-H) and pMHC-SAPE (FL2-H) and analysed by flow cytometry using the FACScalibur™. […]
FIG. 12: Analysis of patient samples. […] Positives were only scored where at least 3 of 9 spots had T cells stuck to them and this occurred in both sets of spots in independent locations on the array. […]
In short, pMHC molecules were folded into tetramers using streptavidin alone or streptavidin conjugated to AlexaFluor 532 (Molecular Probes). […] Excess culture medium was removed before slides were analysed on the ProScanArray (PerkinElmer). […]

P14: modified PASD1 peptide, SEQ ID NO 21, derivative of wild type peptide P8 (RLWQELSDI; Synthetic sequence amino acid sequence p14)
HLA-A2 positive ALL and CML patients with P14-specific T cells (1 ALL and 1 CML HLA-A2 positive patient): neither
HLA-A2 positive AML patients with P14 specific T cells on the pMHC array (at presentation, no prior ex vivo stimulation): two of four
